Measured values reported in the NIST ThermoML archive (doi:10.1016/j.jct.2016.02.014).
± gives the expanded uncertainty stated by the source.

Experiment: xn = mol fraction of the nth substance listed
Conditions: 100 kPa, Liquid; for viscosity: Capillary tube (Ostwald / Ubbelohde) method; for mass density: Vibrating tube method

O=C1CCCO1 [γ-butyrolactone] + CCCCn1cc[n+](C)c1.N#CN=C=[N-]
Conditions	mass density [kg/m3]	viscosity [mPa·s]
273.15 K, x2 = 0	1149.15 ± 9.2	2.69 ± 0.06
273.15 K, x2 = 0.0504	1142.33 ± 9.1	3.61 ± 0.08
273.15 K, x2 = 0.1002	1136.31 ± 9.1	4.65 ± 0.11
273.15 K, x2 = 0.2002	1124.63 ± 9	7.69 ± 0.17
273.15 K, x2 = 0.2984	1114.82 ± 8.9	11.85 ± 0.27
273.15 K, x2 = 0.4005	1106.01 ± 8.9	17.81 ± 0.4
273.15 K, x2 = 0.4954	1099.09 ± 8.8	24.81 ± 0.56
273.15 K, x2 = 0.6957	1087.48 ± 8.7	45.75 ± 1
273.15 K, x2 = 0.8871	1079.17 ± 8.7	74.11 ± 1.7
283.15 K, x2 = 0	1139.31 ± 9.1	2.21 ± 0.05
283.15 K, x2 = 0.0504	1133.08 ± 9.1	2.94 ± 0.07
283.15 K, x2 = 0.1002	1127.5 ± 9	3.73 ± 0.09
283.15 K, x2 = 0.2002	1116.53 ± 8.9	5.87 ± 0.13
283.15 K, x2 = 0.2984	1107.21 ± 8.9	8.75 ± 0.19
283.15 K, x2 = 0.4005	1098.76 ± 8.8	12.54 ± 0.28
283.15 K, x2 = 0.4954	1092.29 ± 8.8	16.9 ± 0.38
283.15 K, x2 = 0.6957	1081.06 ± 8.7	29.14 ± 0.65
283.15 K, x2 = 0.8871	1072.88 ± 8.6	44.36 ± 1
293.15 K, x2 = 0	1129.49 ± 9	1.86 ± 0.04
293.15 K, x2 = 0.0504	1123.86 ± 9	2.42 ± 0.05
293.15 K, x2 = 0.1002	1118.73 ± 9	2.97 ± 0.07
293.15 K, x2 = 0.2002	1108.38 ± 8.9	4.53 ± 0.1
293.15 K, x2 = 0.2984	1099.49 ± 8.8	6.68 ± 0.15
293.15 K, x2 = 0.4005	1091.44 ± 8.7	9.31 ± 0.21
293.15 K, x2 = 0.4954	1085.13 ± 8.7	12.22 ± 0.27
293.15 K, x2 = 0.6957	1074.27 ± 8.6	19.95 ± 0.45
293.15 K, x2 = 0.8871	1066.34 ± 8.6	28.87 ± 0.65
298.15 K, x2 = 0	1124.59 ± 9	1.71 ± 0.04
298.15 K, x2 = 0.0504	1119.26 ± 9	2.22 ± 0.05
298.15 K, x2 = 0.1002	1114.35 ± 8.9	2.77 ± 0.06
298.15 K, x2 = 0.2002	1104.32 ± 8.8	4.16 ± 0.09
298.15 K, x2 = 0.2984	1095.65 ± 8.8	5.92 ± 0.13
298.15 K, x2 = 0.4005	1087.78 ± 8.7	8.18 ± 0.18
298.15 K, x2 = 0.4954	1081.58 ± 8.7	10.57 ± 0.23
298.15 K, x2 = 0.6957	1070.9 ± 8.6	16.81 ± 0.38
298.15 K, x2 = 0.8871	1063.09 ± 8.5	23.85 ± 0.54
303.15 K, x2 = 0	1119.68 ± 9	1.59 ± 0.03
303.15 K, x2 = 0.0504	1114.67 ± 8.9	2.03 ± 0.05
303.15 K, x2 = 0.1002	1109.99 ± 8.9	2.5 ± 0.06
303.15 K, x2 = 0.2002	1100.28 ± 8.8	3.81 ± 0.08
303.15 K, x2 = 0.2984	1091.83 ± 8.7	5.27 ± 0.12
303.15 K, x2 = 0.4005	1084.14 ± 8.7	7.14 ± 0.16
303.15 K, x2 = 0.4954	1078.05 ± 8.6	9.15 ± 0.2
303.15 K, x2 = 0.6957	1067.55 ± 8.6	14.23 ± 0.32
303.15 K, x2 = 0.8871	1059.86 ± 8.5	19.86 ± 0.45
313.15 K, x2 = 0	1109.87 ± 8.9	1.37 ± 0.03
313.15 K, x2 = 0.0504	1105.49 ± 8.8	1.74 ± 0.04
313.15 K, x2 = 0.1002	1101.27 ± 8.8	2.14 ± 0.05
313.15 K, x2 = 0.2002	1092.23 ± 8.7	3.14 ± 0.07
313.15 K, x2 = 0.2984	1084.22 ± 8.7	4.27 ± 0.09
313.15 K, x2 = 0.4005	1076.84 ± 8.6	5.64 ± 0.12
313.15 K, x2 = 0.4954	1071.02 ± 8.6	7.11 ± 0.16
313.15 K, x2 = 0.6957	1060.89 ± 8.5	10.69 ± 0.24
313.15 K, x2 = 0.8871	1053.44 ± 8.5	14.53 ± 0.33
323.15 K, x2 = 0	1100.05 ± 8.8	1.2 ± 0.03
323.15 K, x2 = 0.0504	1096.31 ± 8.8	1.52 ± 0.03
323.15 K, x2 = 0.1002	1092.59 ± 8.7	1.83 ± 0.04
323.15 K, x2 = 0.2002	1084.21 ± 8.7	2.63 ± 0.06
323.15 K, x2 = 0.2984	1076.75 ± 8.6	3.56 ± 0.08
323.15 K, x2 = 0.4005	1069.73 ± 8.6	4.6 ± 0.1
323.15 K, x2 = 0.4954	1064.05 ± 8.5	5.7 ± 0.13
323.15 K, x2 = 0.6957	1054.29 ± 8.5	8.38 ± 0.19
323.15 K, x2 = 0.8871	1047.09 ± 8.4	11.03 ± 0.25
